Assay results from US5858684A, “Method of screening calcium receptor-active molecules” (priority 1995, dated 1999).
Entries after “also recorded” stand apart in the source; their conditions may differ. Read-outs that look alike come from different tables or passages of the source.

Legend:
Format in all cases: cell-based
[1] = target: T1, C-cell calcium receptor (Rattus norvegicus, UniProt P48442); parameters: Neoplastic C-cells derived from a rat medullary thyroid carcinoma (rMTC 6-23); host or cells: rMTC 6-23
T1 sequence (P48442 20-1079): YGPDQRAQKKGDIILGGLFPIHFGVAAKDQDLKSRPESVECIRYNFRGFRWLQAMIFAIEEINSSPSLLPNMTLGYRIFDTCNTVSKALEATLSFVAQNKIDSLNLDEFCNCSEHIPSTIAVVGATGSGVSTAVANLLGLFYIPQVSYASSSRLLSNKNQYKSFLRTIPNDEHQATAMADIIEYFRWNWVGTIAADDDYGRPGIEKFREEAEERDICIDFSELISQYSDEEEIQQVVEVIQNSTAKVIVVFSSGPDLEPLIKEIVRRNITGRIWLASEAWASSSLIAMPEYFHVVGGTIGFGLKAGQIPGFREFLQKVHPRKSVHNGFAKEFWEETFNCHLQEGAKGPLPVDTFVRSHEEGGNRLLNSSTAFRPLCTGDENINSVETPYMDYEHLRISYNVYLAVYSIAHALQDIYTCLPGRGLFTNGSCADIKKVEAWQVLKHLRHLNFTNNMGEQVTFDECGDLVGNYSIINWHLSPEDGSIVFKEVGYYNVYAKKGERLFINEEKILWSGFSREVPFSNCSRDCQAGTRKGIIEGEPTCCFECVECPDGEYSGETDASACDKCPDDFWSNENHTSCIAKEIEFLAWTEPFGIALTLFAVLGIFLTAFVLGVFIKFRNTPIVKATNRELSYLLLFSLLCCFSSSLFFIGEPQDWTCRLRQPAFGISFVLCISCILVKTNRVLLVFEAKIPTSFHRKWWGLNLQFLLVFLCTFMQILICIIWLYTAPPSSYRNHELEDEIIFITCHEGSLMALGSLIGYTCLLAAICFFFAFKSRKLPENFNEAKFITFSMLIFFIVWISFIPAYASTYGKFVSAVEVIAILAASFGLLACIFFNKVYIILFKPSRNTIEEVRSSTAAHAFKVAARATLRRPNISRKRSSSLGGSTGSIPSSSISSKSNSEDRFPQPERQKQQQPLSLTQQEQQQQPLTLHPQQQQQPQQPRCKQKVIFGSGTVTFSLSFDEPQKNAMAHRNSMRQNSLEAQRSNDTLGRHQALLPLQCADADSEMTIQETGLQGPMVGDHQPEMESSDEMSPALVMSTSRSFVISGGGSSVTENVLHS
Text: To assess the effects of molecular polycations on C-cells, a neoplastic cell line, derived from a rat medullary thyroid carcinoma (rMTC 6-23 cells) was used.

[2] = tested on: parathyroid cell calcium receptor; settings: for response in the absence of extracellular Ca2+: Ca2+-free / absence of extracellular Ca2+
[3] = target: T2, human parathyroid cell calcium receptor (pHuPCaR 5.2, pHuPCaR 4.0) (Homo sapiens, UniProt P41180); experiment: Cl- current in Xenopus oocytes expressing cloned human parathyroid calcium receptor; settings: for concentrations evoking increases in Cl- current: 0.3 mM extracellular Ca2+; for response in the absence of extracellular Ca2+: no extracellular Ca2+
T2 sequence (P41180 with tags, fused parts or gaps INS536PLTFVLSVLQ/Q926R/E1011Q): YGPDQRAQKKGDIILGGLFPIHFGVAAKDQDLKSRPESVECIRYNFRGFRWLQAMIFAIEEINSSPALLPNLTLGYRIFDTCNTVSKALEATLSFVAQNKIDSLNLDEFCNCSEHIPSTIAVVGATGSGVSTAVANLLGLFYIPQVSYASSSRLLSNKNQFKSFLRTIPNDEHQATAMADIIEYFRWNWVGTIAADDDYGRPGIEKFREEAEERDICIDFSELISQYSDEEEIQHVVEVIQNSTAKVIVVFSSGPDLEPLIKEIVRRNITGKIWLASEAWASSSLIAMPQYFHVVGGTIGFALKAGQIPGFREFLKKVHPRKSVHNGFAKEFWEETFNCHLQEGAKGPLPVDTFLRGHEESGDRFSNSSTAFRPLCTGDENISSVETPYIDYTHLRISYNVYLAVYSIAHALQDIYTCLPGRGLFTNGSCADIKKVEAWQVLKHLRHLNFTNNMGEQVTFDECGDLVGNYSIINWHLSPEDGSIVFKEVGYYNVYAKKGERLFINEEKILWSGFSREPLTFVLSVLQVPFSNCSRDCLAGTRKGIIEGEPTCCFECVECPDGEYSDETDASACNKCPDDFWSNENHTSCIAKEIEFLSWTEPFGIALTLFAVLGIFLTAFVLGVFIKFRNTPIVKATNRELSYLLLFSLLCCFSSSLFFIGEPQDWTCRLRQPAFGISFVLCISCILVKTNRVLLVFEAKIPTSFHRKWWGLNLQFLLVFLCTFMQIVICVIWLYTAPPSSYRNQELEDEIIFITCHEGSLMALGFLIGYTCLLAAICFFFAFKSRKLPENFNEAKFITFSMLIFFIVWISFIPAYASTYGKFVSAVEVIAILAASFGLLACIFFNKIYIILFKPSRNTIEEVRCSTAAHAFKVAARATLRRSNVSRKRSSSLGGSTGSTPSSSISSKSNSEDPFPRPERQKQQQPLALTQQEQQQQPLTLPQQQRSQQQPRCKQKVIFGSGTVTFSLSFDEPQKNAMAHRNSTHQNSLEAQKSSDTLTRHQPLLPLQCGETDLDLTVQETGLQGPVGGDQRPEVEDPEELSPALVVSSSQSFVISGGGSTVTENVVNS
Protocol: Representative cDNA inserts for both size classes were subcloned into the plasmid vector pBluescript SK. Linearization followed by in vitro transcription using T7 RNA polymerase produced cRNA transcripts. The cRNA transcripts were injected into Xenopus oocytes (150 ng/μl RNA; 50 nl/oocyte) for functional analysis. Following incubation periods of 2-4 days, the oocytes were assayed for the presence of functional calcium receptors. Both clone types gave rise to functional calcium receptors as assessed by the stimulation of calcium-activated chloride currents upon addition of appropriate calcium receptor agonists. […] Thus, both clones encode a functional, human parathyroid cell calcium receptor.
Xenopus oocytes were injected with pHuPCaR 5.2, the 5.2 Kb cDNA encoding a parathyroid cell calcium receptor derived from a human parathyroid cell adenoma. (See Example 27.) After two to three days, Cl^- currents were measured in the oocytes using a two-electrode voltage clamp.

[4] = target: T1, C-cell calcium receptor; experiment: increase in [Ca2+]i in C-cell line 44-2; settings: 1 mM extracellular Ca2+
Text: C-cells appear to express a calcium receptor that is structurally similar to that present on parathyroid cells (see Example 31). […] Thus, compounds in this structural series appear to activate the C-cell calcium receptor.

[5] = rMTC 6-23 cells, fura-2, inactive = no increase in cytosolic Ca2+ at 1-5 mM

Compound | increase in [Ca2+]i / mobilization of intracellular Ca2+ [2] | activation of oocyte-expressed human receptor [3] | response in the absence of extracellular Ca2+ [2] | effect on responses to extracellular Ca2+ ([2]; bovine parathyroid cells) | increase in [Ca2+]i in 44-2 C-cells [4] | concentrations evoking increases in Cl- current [3] [µM] | response in the absence of extracellular Ca2+ [3] | further results
NC[C@@H]1O[C@H](O[C@H]2[C@@H](O)[C@H](O[C@@H]3[C@@H](O)[C@H](N)C[C@H](N)[C@H]3O[C@H]3O[C@H](CN)[C@@H](O)[C@H](O)[C@H]3N)O[C@@H]2CO)[C@H](N)[C@@H](O)[C@@H]1O [Neomycin] | evoked rapid and transient increases |  |  |  |  |  |  | effect on basal [Ca2+]i [1]: fails to affect basal or evoked increases; also recorded: without effect on basal; EC50 C-CELL (Table 6) [1, 5]: inactive; increase in [Ca2+]i (words) ([2]; 10 μM, Ca2+-free buffer): did not by itself cause an increase; increase in [Ca2+]i (words) ([2]; 100 μM, absence of extracellular Ca2+): evoked a rapid and transient increase
COc1cccc([C@@H](C)NCCCc2ccccc2)c1 (single isomer, unassigned) [NPS R-467] |  | activated the oocyte-expressed receptor at about the same concentrations | abolished; also recorded: do not cause the mobilization of intracellular | increase the sensitivity of the calcium receptor | concentration-dependent increase |  |  | increase in [Ca2+]i after 10 μM neomycin ([2]; 30 μM NPS R-467 after 10 μM neomycin, Ca2+-free buffer): elicited a transient increase; increase in [Ca2+]i after 100 μM neomycin ([2]; 30 μM NPS R-467 after 100 μM neomycin, Ca2+-free buffer): did not cause an increase; increase in [Ca2+]i (words) ([2]; 30 μM, Ca2+-free buffer): no increase; also recorded: did not cause any increase; increase in [Ca2+]i (words) ([2]; 0.5 mM extracellular Ca2+): rapid and transient increase
NCCCNCCCCNCCCNCCCNCCCNC(=O)Cc1c[nH]c2ccccc12 [NPS 019] |  |  |  |  |  | 3 to 30 | persisted | transient increase in [Ca2+]i ([1]; 10 μM, 0.5 mM [Ca2+]): transient increase; EC50 ([2]; bovine parathyroid cells, fura-2, read-out: EC50 PARATHYROID (Table 6)): 40 µM
COc1cccc([C@@H](C)NCCCc2ccccc2Cl)c1 [NPS R-568, (R)-(+)-N-[3-(2-chlorophenyl)propyl]-amethyl-α-3-methoxybenzylamine] | evokes increases | activated the oocyte-expressed receptor at about the same concentrations | fails to evoke increases; also recorded: do not cause the mobilization of intracellular | potentiate responses to extracellular; also recorded: increase the sensitivity of the calcium receptor | concentration-dependent increase | 3 to 30 | abolished | EC50 [1, 5]: 1.9 µM; effect on extracellular Ca2+ concentration-response curve [3]: shifted the concentration-response curve to the left
